Literature values in US20240269079A1, “MELATONIN FORMULATION IN SOLID DOSAGE FORM” (AGB-Pharma AB, priority 2021, published 2024).

Assays:
[1] = after administration

Time for blood levels to return to normal daytime levels [1]: 6 to 8 h
Solubility in aqueous solutions: low solubility
Structure (SMILES): COc1ccc2[nH]cc(CCNC(C)=O)c2c1 [melatonin, N-acetyl-5-methoxytryptamine]
